Experimental data from ChEMBL document CHEMBL1139461, “Synthesis and characterization of the novel fluorescent prolyl oligopeptidase inhibitor 4-fluoresceinthiocarbamoyl-6-aminocaproyl-L-prolyl-2(S)-(hydroxyacetyl)pyrrolidine” (J Med Chem, 2005).

Target: Prolyl endopeptidase (Sus scrofa, UniProt P23687)
Test: Inhibition of pig brain POP

Sequence of Prolyl endopeptidase (P23687 whole entry): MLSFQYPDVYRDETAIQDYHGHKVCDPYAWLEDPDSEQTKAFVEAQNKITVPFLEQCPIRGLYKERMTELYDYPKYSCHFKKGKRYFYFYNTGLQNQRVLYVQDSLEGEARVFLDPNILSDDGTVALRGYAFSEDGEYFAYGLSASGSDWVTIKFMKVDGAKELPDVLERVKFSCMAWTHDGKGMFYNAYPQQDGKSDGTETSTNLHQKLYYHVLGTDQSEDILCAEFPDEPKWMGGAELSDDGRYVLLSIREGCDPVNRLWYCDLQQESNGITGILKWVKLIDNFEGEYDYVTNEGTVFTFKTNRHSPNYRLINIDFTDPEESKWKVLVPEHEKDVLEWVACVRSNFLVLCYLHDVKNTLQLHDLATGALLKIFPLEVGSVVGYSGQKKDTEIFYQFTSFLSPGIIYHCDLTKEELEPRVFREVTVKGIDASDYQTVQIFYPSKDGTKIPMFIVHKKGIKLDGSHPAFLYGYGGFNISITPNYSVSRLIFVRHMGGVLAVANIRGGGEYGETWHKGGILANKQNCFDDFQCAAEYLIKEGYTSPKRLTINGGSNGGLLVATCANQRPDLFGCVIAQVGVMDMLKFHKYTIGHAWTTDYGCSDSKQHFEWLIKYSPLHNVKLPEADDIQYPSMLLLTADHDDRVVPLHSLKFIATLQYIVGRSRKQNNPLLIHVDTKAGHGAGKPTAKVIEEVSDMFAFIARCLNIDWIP

IC50 [nM]	Structure (SMILES)
180	O=C1OC2(c3ccc(O)cc3Oc3cc(O)ccc32)c2ccc(NC(=S)NCC(=O)N3CCC[C@H]3C(=O)N3CCC[C@H]3C(=O)CO)cc21
0.83	O=C1OC2(c3ccc(O)cc3Oc3cc(O)ccc32)c2ccc(NC(=S)NCCCCCC(=O)N3CCC[C@H]3C(=O)N3CCC[C@H]3C(=O)CO)cc21
